Test results taken from patent US20260297085A1, “1 H-PYRROLO[2,3-B]PYRIDIN-4-YL]-2-OXOPYRROLIDINE-3-CARBONITRILE DERIVATIVES AS TYROSINE KINASE 2 (TYK2) INHIBITORS FOR THE TREATMENT OF INFLAMMATORY DISEASES” (BIOGEN MA INC., priority 2023, published 2026).
Structures can show the parent of a compound that is named as a salt.

Experiments:
[1] = molecular target: T1, human JAK2 kinase domain (JH1) (Homo sapiens, UniProt O60674); assay: JH1 biochemical assay for JAK2 (ADP-Glo kinase assay, recombinant JH1 catalytic domain, JAK3-974 peptide, 15 μM ATP)
T1 construct: recombinantly generated catalytic kinase (also known as JH1) domain of human JAK1, JAK2, JAK3 and TYK2
Experimental: (§1) Compounds of the disclosure were assessed for their ability to inhibit TYK2, JAK1, JAK2, and JAK3 activity. The inhibitory properties of the compounds of the disclosure described herein can be evidenced by testing in any one of the following protocols.
(§2) The kinase activity of recombinantly generated catalytic kinase (also known as JH1) domain of human JAK1, JAK2, JAK3 and TYK2 were evaluated in a plate-based assay using the ADP-Glo™ Kinase Assay platform. Specifically, 4 nM of recombinant JAK1 kinase domain is used to phosphorylate 50 μM of a JAK3-342 (sequence ALVDGYFRLTT) peptide in the presence of 35 μM ATP. Catalytic activities of recombinant JAK2, JAK3 and TYK2 kinase domain (0.2, 0.3 and 2 nM, respectively) are evaluated by the phosphorylation status of the JAK3-974 (50 μM; sequence LPLDKDYYVVR) peptide with the addition of ATP (15, 4 and 10 μM, respectively). The reactions proceed for 100 minutes and the catalytic activity is quantified by first depleting the unused ATP, converting the hydrolyzed ADP into ATP to generate luminescence in a luciferase reaction; which is the basis of the ADP-Glo platform. Compounds are tested at either 10 μM or 1 μM top concentration, 11 points of 3-fold dilution. The data is normalized and the percent activity versus log concentration of compound is fitted with a 4-parameter logistic model to generate a curve and an IC50 value.

[2] = molecular target: T2, human TYK2 kinase domain (JH1) (Homo sapiens, UniProt P29597); assay: JH1 biochemical assay for TYK2 (ADP-Glo kinase assay, recombinant JH1 catalytic domain, JAK3-974 peptide, 10 μM ATP)
T2 construct: recombinantly generated catalytic kinase (also known as JH1) domain of human JAK1, JAK2, JAK3 and TYK2
T2 sequence (P29597 897-1176 limits assumed): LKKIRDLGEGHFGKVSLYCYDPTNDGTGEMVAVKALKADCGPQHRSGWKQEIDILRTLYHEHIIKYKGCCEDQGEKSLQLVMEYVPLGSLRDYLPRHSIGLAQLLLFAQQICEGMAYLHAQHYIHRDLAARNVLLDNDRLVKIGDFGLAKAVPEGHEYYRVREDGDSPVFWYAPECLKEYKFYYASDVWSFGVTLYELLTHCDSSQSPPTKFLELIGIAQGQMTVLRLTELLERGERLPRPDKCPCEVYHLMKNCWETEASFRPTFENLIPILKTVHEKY
Experimental: as §1, §2

[3] = molecular target: T3, human JAK3 kinase domain (JH1) (Homo sapiens, UniProt P52333); assay: JH1 biochemical assay for JAK3 (ADP-Glo kinase assay, recombinant JH1 catalytic domain, JAK3-974 peptide, 4 μM ATP)
T3 construct: recombinantly generated catalytic kinase (also known as JH1) domain of human JAK1, JAK2, JAK3 and TYK2
Experimental: as §1, §2

[4] = molecular target: T4, human JAK1 kinase domain (JH1) (Homo sapiens, UniProt P23458); assay: JH1 biochemical assay for JAK1 (ADP-Glo kinase assay, recombinant JH1 catalytic domain, JAK3-342 peptide, 35 μM ATP)
T4 construct: recombinantly generated catalytic kinase (also known as JH1) domain of human JAK1, JAK2, JAK3 and TYK2
Experimental: as §1, §2

T1 sequence (O60674 849-1124 limits assumed): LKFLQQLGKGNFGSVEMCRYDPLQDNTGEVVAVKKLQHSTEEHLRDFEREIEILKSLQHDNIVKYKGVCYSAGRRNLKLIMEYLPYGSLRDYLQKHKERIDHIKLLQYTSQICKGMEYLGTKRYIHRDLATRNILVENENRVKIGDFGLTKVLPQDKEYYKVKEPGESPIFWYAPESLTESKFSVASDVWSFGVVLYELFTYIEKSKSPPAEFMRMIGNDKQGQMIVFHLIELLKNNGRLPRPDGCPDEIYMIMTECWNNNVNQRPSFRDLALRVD
T4 sequence (P23458 875-1153 limits assumed): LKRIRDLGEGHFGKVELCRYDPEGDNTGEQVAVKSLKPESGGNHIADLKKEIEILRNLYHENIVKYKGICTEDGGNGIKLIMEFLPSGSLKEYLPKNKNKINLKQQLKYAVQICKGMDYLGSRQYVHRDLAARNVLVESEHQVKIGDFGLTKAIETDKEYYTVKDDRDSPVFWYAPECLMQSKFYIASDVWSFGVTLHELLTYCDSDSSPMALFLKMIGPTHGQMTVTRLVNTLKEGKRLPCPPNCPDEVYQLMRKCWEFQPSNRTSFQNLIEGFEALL
T3 sequence (P52333 822-1111 limits assumed): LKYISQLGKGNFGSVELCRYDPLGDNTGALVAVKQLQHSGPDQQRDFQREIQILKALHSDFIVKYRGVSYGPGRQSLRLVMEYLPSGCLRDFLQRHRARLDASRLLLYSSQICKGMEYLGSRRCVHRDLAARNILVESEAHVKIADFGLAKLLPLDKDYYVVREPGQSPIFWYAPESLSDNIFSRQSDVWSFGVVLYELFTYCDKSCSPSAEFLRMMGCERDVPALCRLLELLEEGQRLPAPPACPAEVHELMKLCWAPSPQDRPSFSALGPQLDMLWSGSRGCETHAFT

| Structure (SMILES) | IC50 ([1]; JH1 kinase domain, ADP-Glo) | IC50 ([2]; JH1 kinase domain, ADP-Glo) | IC50 ([3]; JH1 kinase domain, ADP-Glo) | IC50 ([4]; JH1 kinase domain, ADP-Glo) | IC50 ([1]; JAK2 JH1, ADP-Glo) | IC50 ([2]; TYK2 JH1, ADP-Glo) | IC50 ([3]; JAK3 JH1, ADP-Glo) | IC50 ([4]; JAK1 JH1, ADP-Glo) |
| --- | --- | --- | --- | --- | --- | --- | --- | --- |
| C[C@@H]1CN(c2ccnn3cc(-c4cncc(OC(F)F)c4)cc23)C(=O)[C@]1(C#N)C1CC1 [Example 177, (3R,4S)-3-cyclopropyl-1-(6-(5-(difluoromethoxy)pyridin-3-yl)pyrrolo[1,2-b]pyridazin-4-yl)-4-methyl-2-oxopyrrolidine-3-carbonitrile] | 1 to 5 µM | 0.02 to 0.05 µM | 1 to 5 µM | 0.1 to 1 µM | – | – | – | – |
| C[C@@H]1CN(c2ccnn3cc(-c4cncn4C)cc23)C(=O)[C@]1(C#N)C1CC1 [Example 89, (3R,4S)-3-cyclopropyl-4-methyl-1-(6-(1-methyl-1H-imidazol-5-yl)pyrrolo[1,2-b]pyridazin-4-yl)-2-oxopyrrolidine-3-carbonitrile] | 1 to 5 µM | 0.02 to 0.05 µM | 1 to 5 µM | 1 to 5 µM | – | – | – | – |
| C[C@@H]1CN(c2ccnn3cc(-c4cc(C(F)(F)F)nn4C)cc23)C(=O)[C@]1(C#N)C1CC1 [Example 107, (3R,4S)-3-cyclopropyl-4-methyl-1-(6-(1-methyl-3-(trifluoromethyl)-1H-pyrazol-5-yl)pyrrolo[1,2-b]pyridazin-4-yl)-2-oxopyrrolidine-3-carbonitrile trifluoroacetate] | 1 to 5 µM | 0.02 to 0.05 µM | 1 to 5 µM | 1 to 5 µM | – | – | – | – |
| COc1cc(-c2cn3nccc3c(N3C[C@@H](C)[C@@](C#N)(C4CC4)C3=O)n2)c(F)cn1 [Example 196, (3R,4S)-3-cyclopropyl-1-(6-(5-fluoro-2-methoxypyridin-4-yl)pyrazolo[1,5-a]pyrazin-4-yl)-4-methyl-2-oxopyrrolidine-3-carbonitrile] | 1 to 5 µM | 0.02 to 0.05 µM | 0.1 to 1 µM | 0.1 to 1 µM | – | – | – | – |
| C[C@@H]1CN(c2nc(-c3ncccc3F)cn3nccc23)C(=O)[C@]1(C#N)C1CC1 [Example 212, (3R,4S)-3-cyclopropyl-1-(6-(3-fluoropyridin-2-yl)pyrazolo[1,5-a]pyrazin-4-yl)-4-methyl-2-oxopyrrolidine-3-carbonitrile] | > 10 µM | 0.05 to 0.1 µM | 1 to 5 µM | 1 to 5 µM | – | – | – | – |
| C[C@@H]1CN(c2ccnn3cc(-c4cnc(N(C)C)nc4)cc23)C(=O)[C@]1(C#N)C1CC1 [Example 91, (3R,4S)-3-cyclopropyl-1-(6-(2-(dimethylamino)pyrimidin-5-yl)pyrrolo[1,2-b]pyridazin-4-yl)-4-methyl-2-oxopyrrolidine-3-carbonitrile] | 1 to 5 µM | 0.02 to 0.05 µM | 1 to 5 µM | 0.1 to 1 µM | – | – | – | – |
| COc1ccc(-c2cn3nccc3c(N3C[C@@H](C)[C@@](C#N)(C4CC4)C3=O)n2)cn1 [Example 224, (3R,4S)-3-cyclopropyl-1-(6-(6-methoxypyridin-3-yl)pyrazolo[1,5-a]pyrazin-4-yl)-4-methyl-2-oxopyrrolidine-3-carbonitrile] | – | – | – | – | 1 to 5 µM | 0.02 to 0.05 µM | 1 to 5 µM | 0.1 to 1 µM |
| COc1ccnc(-c2cc3c(N4C[C@@H](C)[C@@](C#N)(C5CC5)C4=O)ccnn3c2)n1 [Example 122, (3R,4S)-3-cyclopropyl-1-(6-(4-methoxypyrimidin-2-yl)pyrrolo[1,2-b]pyridazin-4-yl)-4-methyl-2-oxopyrrolidine-3-carbonitrile trifluoroacetate] | > 10 µM | > 0.1 µM | > 10 µM | 5 to 10 µM | – | – | – | – |
| C[C@@H]1CN(c2ccnn3cc(-c4nccn5ccnc45)cc23)C(=O)[C@]1(C#N)C1CC1 [Example 123, (3R,4S)-3-cyclopropyl-1-(6-(imidazo[1,2-a]pyrazin-8-yl)pyrrolo[1,2-b]pyridazin-4-yl)-4-methyl-2-oxopyrrolidine-3-carbonitrile trifluoroacetate] | > 10 µM | > 0.1 µM | > 10 µM | > 10 µM | – | – | – | – |
| CC(O)c1ccc(-c2cc3c(N4C[C@@H](C)[C@@](C#N)(C5CC5)C4=O)ccnn3c2)nc1 (stereo partly drawn) [Example 130, (3R,4S)-3-cyclopropyl-1-(6-(5-(1-hydroxyethyl)pyridin-2-yl)pyrrolo[1,2-b]pyridazin-4-yl)-4-methyl-2-oxopyrrolidine-3-carbonitrile trifluoroacetate] | 0.1 to 1 µM | 0.005 to 0.02 µM | 0.1 to 1 µM | 0.1 to 1 µM | – | – | – | – |
| COc1cncc(-c2cc3c(N4C[C@@H](C)[C@@](C#N)(C5CC5)C4=O)ccnn3c2)n1 [Example 126, (3R,4S)-3-cyclopropyl-1-(6-(6-methoxypyrazin-2-yl)pyrrolo[1,2-b]pyridazin-4-yl)-4-methyl-2-oxopyrrolidine-3-carbonitrile trifluoroacetate] | 0.1 to 1 µM | 0.02 to 0.05 µM | 0.1 to 1 µM | 0.1 to 1 µM | – | – | – | – |
| C[C@H]1C[C@@](C#N)(C2CC2)C(=O)N1c1ccnn2cc(-c3cnn(C)c3)cc12 [Example 31, (3S,5S)-3-cyclopropyl-5-methyl-1-(6-(1-methyl-1H-pyrazol-4-yl)pyrrolo[1,2-b]pyridazin-4-yl)-2-oxopyrrolidine-3-carbonitrile] | > 10 µM | > 0.1 µM | > 10 µM | > 10 µM | – | – | – | – |
| Cn1cc(-c2cc3c(N4CC[C@@](C)(C#N)C4=O)ccnn3c2)cn1 (single isomer, unassigned) [Example 38] | 1 to 5 µM | 0.05 to 0.1 µM | 1 to 5 µM | 1 to 5 µM | – | – | – | – |
| C[C@@H]1CN(c2nc(-c3cncc(F)c3)cn3nccc23)C(=O)[C@]1(C#N)C1CC1 [Example 246, (3R,4S)-3-cyclopropyl-1-(6-(5-fluoropyridin-3-yl)pyrazolo[1,5-a]pyrazin-4-yl)-4-methyl-2-oxopyrrolidine-3-carbonitrile trifluoroacetate] | – | – | – | – | 0.1 to 1 µM | 0.005 to 0.02 µM | 0.1 to 1 µM | 0.1 to 1 µM |
| C[C@@H]1CN(c2cc(-c3cnn(C)c3)cc3nscc23)C(=O)[C@]1(C#N)C1CC1 [Example 351, (3R,4S)-3-cyclopropyl-4-methyl-1-(6-(1-methyl-1H-pyrazol-4-yl)benzo[c]isothiazol-4-yl)-2-oxopyrrolidine-3-carbonitrile] | – | – | – | – | 0.1 to 1 µM | 0.02 to 0.05 µM | 0.1 to 1 µM | 0.1 to 1 µM |
| C[C@@H]1CN(c2nc(-c3cccnc3)cn3ncc(F)c23)C(=O)[C@]1(C#N)C1CC1 [Example 222, (3R,4S)-3-cyclopropyl-1-(3-fluoro-6-(pyridin-3-yl)pyrazolo[1,5-a]pyrazin-4-yl)-4-methyl-2-oxopyrrolidine-3-carbonitrile] | – | – | – | – | 1 to 5 µM | 0.05 to 0.1 µM | 0.1 to 1 µM | 1 to 5 µM |
| C[C@H]1CN(c2ccnn3cc(-c4cnn(C)c4)cc23)C(=O)[C@@]1(C#N)C1CC1 [Example 29, (3S,4R)-3-cyclopropyl-4-methyl-1-(6-(1-methyl-1H-pyrazol-4-yl)pyrrolo[1,2-b]pyridazin-4-yl)-2-oxopyrrolidine-3-carbonitrile] | > 10 µM | > 0.1 µM | > 10 µM | > 10 µM | – | – | – | – |
| C[C@@H]1CN(c2nc(-c3ccnn3C)cn3nccc23)C(=O)[C@]1(C#N)C1CC1 [Example 254, (3R,4S)-3-cyclopropyl-4-methyl-1-(6-(1-methyl-1H-pyrazol-5-yl)pyrazolo[1,5-a]pyrazin-4-yl)-2-oxopyrrolidine-3-carbonitrile trifluoroacetate] | – | – | – | – | 0.1 to 1 µM | 0.02 to 0.05 µM | 0.1 to 1 µM | 0.1 to 1 µM |
